In patent publication US20260356819A1, “OXOISOINDOLINYL-SUBSTITUTED […] DERIVATIVE AND USE THEREOF” (GLUETACS THERAPEUTICS (SHANGHAI) CO., LTD., priority 2023, published 2026):

Columns and labels:
[1] = test system: MM.1S cells; test: Inhibition of proliferation of multiple myeloma cells MM.1S (cell viability assay, 96 h); assay type: cell-based, human; details: read-out: inhibitory activity (IC50) against tumor cells proliferation, MM.1S
Protocol: The tumor cells used herein were cultured in a cell culture medium listed in table 2 at 37 °C in an incubator with 5% CO2. Prior to experimentation, all cell lines used were correctly identified by STR profiling, and tested negative for Mycoplasma contamination using a Mycoplasma detection kit through routine screenings.
The IC50 values of the compounds of the present disclosure (including the compounds in Table 1, and Examples 1-498) were determined using the CellTiter-Meiluncell Luminescent Cell Viability Assay Kit from Dalian Meilun Biotech Co., Ltd. The detailed procedure is as follows: Tumor cells were seeded in 96-well cell culture plates at the densities specified in Table 3. On the following day, the test compounds of the present disclosure were subjected to serial dilution. […] Subsequently, 0.5 μL of the test compound dilution was transferred into the 96-well plate containing the cells, with each well containing 100 μL of cell culture medium. […] Into the 96-well plate, the diluted test compounds and corresponding detection reagents were added, resulting in final test compound concentrations of 500 nM and 10 nM, respectively. The experimental procedure is described below using the diluted 2 μM test compound as an example.
0.5 μL of the aforementioned diluted compound of the present disclosure (including the compounds in Table 1, and Examples 1-498) was added to the seeded cells in 100 μL of medium, yielding a final test compound concentration of 10 nM. After the cells were treated with the compounds of the present disclosure for a specified period, the cell viability assay reagent was added to the culture medium according to the kit's instructions to determine cell viability. […] All controls were treated using the same procedure as the compounds of the present disclosure. The growth inhibition curves for the compounds of the present disclosure were plotted using Prism GraphPad software, and the IC50 values were calculated therefrom.

[2] = target: T1, WEE1 (Homo sapiens, UniProt P30291+Q96SW2); test: Western blot degradation of WEE1 in hPBMCs (24 h); assay type: cell-based; details: compounds at 50 nM and 500 nM
T1 construct: The supernatant was aspirated as the extracted total cell protein; endogenous in cells; host or cells: human peripheral blood mononuclear cells (hPBMCs)
T1 sequence (P30291 whole entry): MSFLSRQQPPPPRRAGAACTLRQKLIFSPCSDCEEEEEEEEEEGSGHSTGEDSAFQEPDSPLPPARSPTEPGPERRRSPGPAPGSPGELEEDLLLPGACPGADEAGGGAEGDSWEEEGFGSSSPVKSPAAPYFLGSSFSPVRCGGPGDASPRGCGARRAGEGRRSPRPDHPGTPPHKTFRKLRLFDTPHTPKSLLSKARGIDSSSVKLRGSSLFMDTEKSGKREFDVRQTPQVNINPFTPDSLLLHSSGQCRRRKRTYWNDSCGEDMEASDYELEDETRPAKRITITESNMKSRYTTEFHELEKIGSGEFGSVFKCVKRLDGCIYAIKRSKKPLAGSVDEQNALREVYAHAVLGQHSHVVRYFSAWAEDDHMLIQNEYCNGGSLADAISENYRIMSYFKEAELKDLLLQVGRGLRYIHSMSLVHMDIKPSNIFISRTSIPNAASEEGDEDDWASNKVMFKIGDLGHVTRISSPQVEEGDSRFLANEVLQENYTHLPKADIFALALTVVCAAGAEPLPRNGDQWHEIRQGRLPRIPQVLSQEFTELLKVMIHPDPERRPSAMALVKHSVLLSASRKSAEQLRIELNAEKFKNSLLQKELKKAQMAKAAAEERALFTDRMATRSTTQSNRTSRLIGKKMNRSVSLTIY
T1 sequence (Q96SW2 whole entry): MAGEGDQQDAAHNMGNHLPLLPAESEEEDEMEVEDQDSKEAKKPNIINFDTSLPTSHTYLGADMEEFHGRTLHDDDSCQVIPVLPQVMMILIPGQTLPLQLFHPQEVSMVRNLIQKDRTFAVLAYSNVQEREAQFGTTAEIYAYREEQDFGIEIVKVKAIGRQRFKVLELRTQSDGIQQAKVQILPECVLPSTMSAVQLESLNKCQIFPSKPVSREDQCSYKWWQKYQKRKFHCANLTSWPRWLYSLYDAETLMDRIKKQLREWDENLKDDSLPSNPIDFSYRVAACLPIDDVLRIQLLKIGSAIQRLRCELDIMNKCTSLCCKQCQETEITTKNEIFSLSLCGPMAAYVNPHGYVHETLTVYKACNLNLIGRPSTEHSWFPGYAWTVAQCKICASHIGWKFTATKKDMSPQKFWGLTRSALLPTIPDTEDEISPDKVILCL
T1 sequence (Q16531 whole entry partner): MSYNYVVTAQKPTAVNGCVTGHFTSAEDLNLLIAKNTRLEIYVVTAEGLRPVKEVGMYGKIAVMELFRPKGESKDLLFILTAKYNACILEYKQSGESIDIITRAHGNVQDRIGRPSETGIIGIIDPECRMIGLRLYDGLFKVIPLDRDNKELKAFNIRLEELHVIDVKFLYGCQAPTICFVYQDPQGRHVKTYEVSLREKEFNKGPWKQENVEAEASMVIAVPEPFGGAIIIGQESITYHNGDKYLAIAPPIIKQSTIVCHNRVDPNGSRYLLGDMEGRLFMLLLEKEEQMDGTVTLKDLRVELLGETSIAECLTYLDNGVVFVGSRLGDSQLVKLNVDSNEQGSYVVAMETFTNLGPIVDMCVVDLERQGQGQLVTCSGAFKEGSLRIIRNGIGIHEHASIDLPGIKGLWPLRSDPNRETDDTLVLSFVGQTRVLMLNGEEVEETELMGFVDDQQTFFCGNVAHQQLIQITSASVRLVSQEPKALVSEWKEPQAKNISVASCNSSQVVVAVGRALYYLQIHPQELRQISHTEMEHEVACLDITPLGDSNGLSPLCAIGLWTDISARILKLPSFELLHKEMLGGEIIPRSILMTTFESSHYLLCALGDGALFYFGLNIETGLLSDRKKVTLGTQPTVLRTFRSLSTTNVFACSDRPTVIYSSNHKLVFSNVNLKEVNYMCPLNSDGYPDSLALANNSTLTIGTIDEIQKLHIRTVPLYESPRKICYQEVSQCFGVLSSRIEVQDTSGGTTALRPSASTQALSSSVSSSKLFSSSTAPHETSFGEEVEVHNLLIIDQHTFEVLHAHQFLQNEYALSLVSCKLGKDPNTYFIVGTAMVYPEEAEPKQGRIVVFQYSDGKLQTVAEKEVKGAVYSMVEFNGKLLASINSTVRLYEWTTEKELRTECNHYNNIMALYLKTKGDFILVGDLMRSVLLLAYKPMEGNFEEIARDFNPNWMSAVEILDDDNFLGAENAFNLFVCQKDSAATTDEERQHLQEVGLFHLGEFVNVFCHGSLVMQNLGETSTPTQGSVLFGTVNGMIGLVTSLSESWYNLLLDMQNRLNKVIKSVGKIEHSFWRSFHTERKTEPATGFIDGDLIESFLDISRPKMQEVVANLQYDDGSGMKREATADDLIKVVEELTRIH
In short: (§1)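 Compounds were tested at 50 nM and 500 nM on hPBMCs (1×10^6 cells/mL) for 24 h, alongside DMSO. Proteins were detected by Western blot after denaturation at 95 °C; remaining protein computed from normalised band grayscale.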

[3] = target: T2, IKZF1 (Homo sapiens, UniProt Q13422+Q96SW2); test: Western blot degradation of IKZF1 in hPBMCs (24 h); assay type: cell-based; details: compounds at 50 nM and 500 nM
T2 construct: The supernatant was aspirated as the extracted total cell protein; endogenous in cells; host or cells: human peripheral blood mononuclear cells (hPBMCs)
T2 sequence (Q13422 whole entry): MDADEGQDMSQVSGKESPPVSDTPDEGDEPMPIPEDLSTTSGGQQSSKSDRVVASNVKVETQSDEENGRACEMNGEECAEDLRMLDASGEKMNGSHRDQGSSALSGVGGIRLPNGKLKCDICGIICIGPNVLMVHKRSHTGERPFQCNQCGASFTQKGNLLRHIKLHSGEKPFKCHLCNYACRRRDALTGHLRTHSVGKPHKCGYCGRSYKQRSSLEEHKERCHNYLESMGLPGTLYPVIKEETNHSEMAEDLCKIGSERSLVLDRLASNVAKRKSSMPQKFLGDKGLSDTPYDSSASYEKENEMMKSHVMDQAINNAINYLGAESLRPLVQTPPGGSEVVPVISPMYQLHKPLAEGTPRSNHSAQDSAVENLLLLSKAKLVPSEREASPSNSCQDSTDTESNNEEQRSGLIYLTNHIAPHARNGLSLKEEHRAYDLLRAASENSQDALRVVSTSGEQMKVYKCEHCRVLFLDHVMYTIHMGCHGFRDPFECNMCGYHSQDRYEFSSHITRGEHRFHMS
T2 sequence (Q96SW2 whole entry): as the sequence (Q96SW2 whole entry) above
T2 sequence (Q16531 whole entry partner): as the sequence (Q16531 whole entry partner) above
In short: as §1

[4] = target: T3, IKZF2 (Homo sapiens, UniProt Q96SW2+Q9UKS7); test: Western blot degradation of IKZF2 in hPBMCs (24 h); assay type: cell-based; details: compounds at 50 nM and 500 nM
T3 construct: The supernatant was aspirated as the extracted total cell protein; endogenous in cells; host or cells: human peripheral blood mononuclear cells (hPBMCs)
In short: as §1

[5] = target: T4, IKZF3 (Homo sapiens, UniProt Q96SW2+Q9UKT9); test: Western blot degradation of IKZF3 in hPBMCs (24 h); assay type: cell-based; details: compounds at 50 nM and 500 nM
T4 construct: The supernatant was aspirated as the extracted total cell protein; endogenous in cells; host or cells: human peripheral blood mononuclear cells (hPBMCs)
T4 sequence (Q9UKT9 whole entry): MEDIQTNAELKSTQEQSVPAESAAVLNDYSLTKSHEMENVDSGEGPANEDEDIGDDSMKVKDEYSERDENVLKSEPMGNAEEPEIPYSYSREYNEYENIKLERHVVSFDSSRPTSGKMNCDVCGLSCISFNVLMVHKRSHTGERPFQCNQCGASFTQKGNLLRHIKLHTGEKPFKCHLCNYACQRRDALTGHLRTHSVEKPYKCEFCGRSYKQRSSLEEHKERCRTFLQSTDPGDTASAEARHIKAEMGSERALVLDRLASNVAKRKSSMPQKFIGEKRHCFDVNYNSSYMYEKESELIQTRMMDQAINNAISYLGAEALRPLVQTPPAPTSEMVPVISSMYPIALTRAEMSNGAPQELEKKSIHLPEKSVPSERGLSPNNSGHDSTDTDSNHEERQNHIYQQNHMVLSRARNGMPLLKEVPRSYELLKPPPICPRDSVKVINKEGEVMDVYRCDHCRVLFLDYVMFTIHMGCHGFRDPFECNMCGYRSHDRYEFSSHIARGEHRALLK
T4 sequence (Q96SW2 whole entry): as the sequence (Q96SW2 whole entry) above
T4 sequence (Q16531 whole entry partner): as the sequence (Q16531 whole entry partner) above
In short: as §1

[6] = target: T5, CK1α (Homo sapiens, UniProt P48729+Q96SW2); test: Western blot degradation of CK1α in hPBMCs (24 h); assay type: cell-based; details: compounds at 50 nM and 500 nM
T5 construct: The supernatant was aspirated as the extracted total cell protein; endogenous in cells; host or cells: human peripheral blood mononuclear cells (hPBMCs)
T5 sequence (P48729 whole entry): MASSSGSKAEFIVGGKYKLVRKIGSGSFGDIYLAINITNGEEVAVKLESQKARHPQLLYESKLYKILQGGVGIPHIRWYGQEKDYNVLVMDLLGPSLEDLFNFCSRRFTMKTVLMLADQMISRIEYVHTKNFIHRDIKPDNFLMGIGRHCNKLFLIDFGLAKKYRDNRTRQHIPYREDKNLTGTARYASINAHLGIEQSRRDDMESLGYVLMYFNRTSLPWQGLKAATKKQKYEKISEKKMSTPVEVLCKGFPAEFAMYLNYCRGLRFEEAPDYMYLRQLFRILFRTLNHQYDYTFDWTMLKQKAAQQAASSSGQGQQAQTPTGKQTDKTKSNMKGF
T5 sequence (Q96SW2 whole entry): as the sequence (Q96SW2 whole entry) above
T5 sequence (Q16531 whole entry partner): as the sequence (Q16531 whole entry partner) above
In short: as §1

[7] = target: T6, GSPT1 (Homo sapiens, UniProt P15170+Q96SW2); test: Western blot degradation of GSPT1 in hPBMCs (24 h); assay type: cell-based; details: compounds at 50 nM and 500 nM
T6 construct: The supernatant was aspirated as the extracted total cell protein; endogenous in cells; host or cells: human peripheral blood mononuclear cells (hPBMCs)
T6 sequence (P15170 whole entry): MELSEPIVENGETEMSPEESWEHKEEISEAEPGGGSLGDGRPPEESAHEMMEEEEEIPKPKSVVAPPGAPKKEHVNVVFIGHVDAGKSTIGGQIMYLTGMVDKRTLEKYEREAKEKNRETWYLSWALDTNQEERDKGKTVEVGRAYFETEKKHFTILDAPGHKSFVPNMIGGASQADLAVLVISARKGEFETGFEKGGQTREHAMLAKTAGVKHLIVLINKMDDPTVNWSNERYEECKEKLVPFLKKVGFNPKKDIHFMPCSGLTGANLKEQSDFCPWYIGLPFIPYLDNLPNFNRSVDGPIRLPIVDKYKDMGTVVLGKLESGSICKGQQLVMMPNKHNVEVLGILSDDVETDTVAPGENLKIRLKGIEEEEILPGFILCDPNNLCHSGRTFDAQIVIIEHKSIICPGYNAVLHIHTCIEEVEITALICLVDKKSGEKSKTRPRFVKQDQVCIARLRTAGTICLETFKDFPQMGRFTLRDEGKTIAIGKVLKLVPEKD
T6 sequence (Q96SW2 whole entry): as the sequence (Q96SW2 whole entry) above
T6 sequence (Q16531 whole entry partner): as the sequence (Q16531 whole entry partner) above
In short: as §1

Structure (SMILES)	IC50 [1] [µM]	WEE1 substrate protein remaining % [2]	IKZF1 substrate protein remaining % [3]	IKZF2 substrate protein remaining % [4]	IKZF3 substrate protein remaining % [5]	CK1α substrate protein remaining % [6]	GSPT1 substrate protein remaining % [7]
N#Cc1ccc(N2CCN(Cc3ccc(COc4cccc5c4CN(N4CCC(=O)NC4=O)C5=O)cc3)CC2)c(F)c1 [GT-06132, 4-(4-(4-(((2-(2,4-dioxotetrahydropyrimidin-1(2H)-yl)-1-oxoisoindolin-4-yl)oxy)methyl)benzyl)piperazin-1-yl)-3-fluorobenzonitrile]	0.1 to 0.3	–	–	–	–	–	–
O=C1CCN(N2Cc3cc(CN4CC=C(c5nccc(Cl)c5Cl)CC4)ccc3C2=O)C(=O)N1 [GT-06392, 1-(5-((3,4-dichloro-3′,6′-dihydro-[2,4′-bipyridin]-1′ (2′H)-yl)methyl)-1-oxoisoindolin-2-yl)dihydropyrimidine-2,4(1H,3H)-dione]	0.3 to 0.5	A (0% ≤ substrate protein remaining % ≤80%)	B (80%< substrate protein remaining % ≤100%)	A (0% ≤ substrate protein remaining % ≤80%)	A (0% ≤ substrate protein remaining % ≤80%)	A (0% ≤ substrate protein remaining % ≤80%)	A (0% ≤ substrate protein remaining % ≤80%)
O=C1CCN(N2Cc3cc(CN4CCN(c5cccc(Cl)n5)CC4)ccc3C2=O)C(=O)N1 [GT-05126, 1-(5-((4-(6-chloropyridin-2-yl)piperazin-1-yl)methyl)-1-oxoisoindolin-2-yl)dihydropyrimidine-2,4(1H,3H)-dione]	0.3 to 0.5	A (0% ≤ substrate protein remaining % ≤80%)	A (0% ≤ substrate protein remaining % ≤80%)	A (0% ≤ substrate protein remaining % ≤80%)	A (0% ≤ substrate protein remaining % ≤80%)	A (0% ≤ substrate protein remaining % ≤80%)	A (0% ≤ substrate protein remaining % ≤80%)
O=C1CCN(N2Cc3cc(CN4CC(N5CCc6cc(F)ccc65)C4)ccc3C2=O)C(=O)N1 [GT-05169, 1-(5-((3-(5-fluoroindolin-1-yl)azetidin-1-yl)methyl)-1-oxoisoindolin-2-yl)dihydropyrimidine-2,4(1H,3H)-dione]	0.1 to 0.3	B (80%< substrate protein remaining % ≤100%)	B (80%< substrate protein remaining % ≤100%)	A (0% ≤ substrate protein remaining % ≤80%)	A (0% ≤ substrate protein remaining % ≤80%)	B (80%< substrate protein remaining % ≤100%)	A (0% ≤ substrate protein remaining % ≤80%)
O=C1CCN(N2Cc3cc(CN4CCN(c5ccc(Cl)cn5)CC4)ccc3C2=O)C(=O)N1 [GT-05127, 1-(5-((4-(5-chloropyridin-2-yl)piperazin-1-yl)methyl)-1-oxoisoindolin-2-yl)dihydropyrimidine-2,4(1H,3H)-dione]	0.5 to 1	A (0% ≤ substrate protein remaining % ≤80%)	A (0% ≤ substrate protein remaining % ≤80%)	B (80%< substrate protein remaining % ≤100%)	A (0% ≤ substrate protein remaining % ≤80%)	A (0% ≤ substrate protein remaining % ≤80%)	A (0% ≤ substrate protein remaining % ≤80%)
CC1(C)CCC(CN2CC3CCC(C2)N3Cc2ccc3c(c2)C(=O)N(N2CCC(=O)NC2=O)C3=O)=C(c2ccc(Cl)cc2)C1 [GT-07333, 5-((3-((4′-chloro-5,5-dimethyl-3,4,5,6-tetrahydro-[1,1′-biphenyl]-2-yl)methyl)-3,8-diazabicyclo[3.2.1]octan-8-yl)methyl)-2-(2,4-dioxotetrahydropyrimidin-1(2H)-yl)isoindoline-1,3-dione]	–	B (80%< substrate protein remaining % ≤100%)	B (80%< substrate protein remaining % ≤100%)	B (80%< substrate protein remaining % ≤100%)	B (80%< substrate protein remaining % ≤100%)	B (80%< substrate protein remaining % ≤100%)	A (0% ≤ substrate protein remaining % ≤80%)
O=C1CCN(N2Cc3cc(CN4CCN(c5noc6cc(F)ccc56)CC4)ccc3C2=O)C(=O)N1 [GT-07496, 1-(5-((4-(6-fluorobenzo[d]isoxazol-3-yl)piperazin-1-yl)methyl)-1-oxoisoindolin-2-yl)dihydropyrimidine-2,4(1H,3H)-dione]	–	B (80%< substrate protein remaining % ≤100%)	B (80%< substrate protein remaining % ≤100%)	B (80%< substrate protein remaining % ≤100%)	B (80%< substrate protein remaining % ≤100%)	A (0% ≤ substrate protein remaining % ≤80%)	A (0% ≤ substrate protein remaining % ≤80%)
O=C1CCN(N2C(=O)c3ccc(CN4CCN(c5noc6ccncc56)CC4)cc3C2=O)C(=O)N1 [GT-07525, 2-(2,4-dioxotetrahydropyrimidin-1(2H)-yl)-5-((4-(isoxazolo[4,5-c]pyridin-3-yl)piperazin-1-yl)methyl)isoindoline-1,3-dione]	–	B (80%< substrate protein remaining % ≤100%)	B (80%< substrate protein remaining % ≤100%)	B (80%< substrate protein remaining % ≤100%)	B (80%< substrate protein remaining % ≤100%)	A (0% ≤ substrate protein remaining % ≤80%)	A (0% ≤ substrate protein remaining % ≤80%)
COc1cccc(N2CCN(Cc3ccc4c(c3)C(=O)N(N3CCC(=O)NC3=O)C4=O)CC2)c1 [GT-06721, 2-(2,4-dioxotetrahydropyrimidin-1(2H)-yl)-5-((4-(3-methoxyphenyl)piperazin-1-yl)methyl)isoindoline-1,3-dione]	–	B (80%< substrate protein remaining % ≤100%)	A (0% ≤ substrate protein remaining % ≤80%)	A (0% ≤ substrate protein remaining % ≤80%)	A (0% ≤ substrate protein remaining % ≤80%)	B (80%< substrate protein remaining % ≤100%)	B (80%< substrate protein remaining % ≤100%)
O=C1CCN(N2Cc3cc(CN4CC=C(c5ncc6ccsc6n5)CC4)ccc3C2=O)C(=O)N1 [GT-08438, 1-(1-oxo-5-((4-(thieno[2,3-d]pyrimidin-2-yl)-3,6-dihydropyridin-1(2H)-yl)methyl)isoindolin-2-yl)dihydropyrimidine-2,4(1H,3H)-dione]	–	A (0% ≤ substrate protein remaining % ≤80%)	A (0% ≤ substrate protein remaining % ≤80%)	B (80%< substrate protein remaining % ≤100%)	A (0% ≤ substrate protein remaining % ≤80%)	B (80%< substrate protein remaining % ≤100%)	A (0% ≤ substrate protein remaining % ≤80%)
O=C1CCN(N2C(=O)c3ccc(CN4CCC(c5ccon5)CC4)cc3C2=O)C(=O)N1 [GT-07523, 2-(2,4-dioxotetrahydropyrimidin-1(2H)-yl)-5-((4-(isoxazol-3-yl)piperidin-1-yl)methyl)isoindoline-1,3-dione]	–	A (0% ≤ substrate protein remaining % ≤80%)	A (0% ≤ substrate protein remaining % ≤80%)	A (0% ≤ substrate protein remaining % ≤80%)	B (80%< substrate protein remaining % ≤100%)	A (0% ≤ substrate protein remaining % ≤80%)	A (0% ≤ substrate protein remaining % ≤80%)
